US20260028673A1, “PR[…] OF TCF1+ […]-CELLS IN SEVERE COVID-19 AS MEDIATED BY INTERLEUKIN 12 (IL-12)” (priority 2022, published 2026)
Entries after “also recorded” stand apart in the source; their conditions may differ.

Legend:
TCF-1 = settings: reference 67; transcriptional level, by inhibiting DNA methyltransferases; cited from earlier work
IL12p40 = IL12p40 (Homo sapiens, UniProt P29460); assay type: cell-based; settings: severe sera, 6 days, FIG. 9D
COVID-19 = settings: reference 50; cited from earlier work
IL-12 production = settings: reference 51; cited from earlier work

IL12p40, sequence (P29460 23-328): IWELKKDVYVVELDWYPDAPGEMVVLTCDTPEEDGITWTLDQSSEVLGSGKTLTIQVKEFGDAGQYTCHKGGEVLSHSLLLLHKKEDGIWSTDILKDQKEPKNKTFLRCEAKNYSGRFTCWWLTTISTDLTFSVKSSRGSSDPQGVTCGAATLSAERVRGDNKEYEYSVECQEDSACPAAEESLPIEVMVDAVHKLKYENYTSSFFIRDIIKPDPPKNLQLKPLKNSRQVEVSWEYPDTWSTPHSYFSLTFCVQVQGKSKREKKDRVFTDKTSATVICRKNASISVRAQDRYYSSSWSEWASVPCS
IL12p40, sequence (P29459 23-219, further chain): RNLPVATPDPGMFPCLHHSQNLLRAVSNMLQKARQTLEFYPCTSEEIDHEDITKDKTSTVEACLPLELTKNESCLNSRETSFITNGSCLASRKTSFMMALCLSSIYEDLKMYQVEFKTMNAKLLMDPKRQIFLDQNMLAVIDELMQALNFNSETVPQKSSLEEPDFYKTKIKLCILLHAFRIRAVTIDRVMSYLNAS

Compound | TCF-1 (TCF1) expression (TCF-1) | TCF1 expression in naïve, TCM, TEM and TEMRA T-cell subsets (IL12p40) | Success in treating COVID-19 patients (COVID-19) | IL-12 production (IL-12 production)
IL-12: proinflammatory cytokine interleukin 12 | down-regulate TCF-1 at the transcriptional level; also recorded: downregulate TCF1 | restored |  | 
C[C@@H]1C[C@H]2[C@@H]3CCC4=CC(=O)C=C[C@]4(C)[C@@]3(F)[C@@H](O)C[C@]2(C)[C@@]1(O)C(=O)CO [dexamethasone] |  |  | proven successful | inhibits IL-12 production
